{"source": "patent US20080070978A1", "about": "“Internal 1,15-Lactones Of Fluprostenol And Related Prostaglandin F2a Analogs And Their Use In The Treatment Of Glaucoma And Intraocular Hypertension” (priority 2000, published 2008)", "tested_on": "corneal esterase enzymes", "test": "Enzymatic hydrolysis of fluprostenol 1,15-lactone by corneal esterase enzymes (incubation with bovine corneal tissue; TLC and HPLC analysis)", "assay_type": "in vitro ADME", "details": "pH 7.4 phosphate buffered saline, 37° C.", "procedure": "Enzymatic hydrolysis of fluprostenol 1,15-lactone by corneal esterase enzymes was documented by suspending 500 μg of fluprostenol 1,15-lactone in 10 ml of pH 7.4 phosphate buffered saline containing approximately 40 mg of freshly collected bovine cornea! tissue. The mixture was incubated at 37° C. and analyzed at 2 hour, 4 hour and 18 hour time intervals by Thin Layer Chromatography (TLC; Analtech silica gel G-60 plates) using 40:60 acetone:dichloromethane containing 0.5% acetic acid. The plates were visualized by spraying with vanillin dissolved in methanol and phosphoric acid; followed by charring on a hot plate. PGF2α methyl ester, which is known to be hydrolyzed by corneal esterases, was subjected to the same procedure as a control.\nThe results are shown in FIGS. 3A-3D which are images of chromatography plates developed at 2 hours (FIGS. 3A and 3C) and 4 hours (FIGS. 3B and 3D), respectively. […]\nThe mixture of fluprostenol 1,15-lactone and bovine corneal tissue was also analyzed using HPLC under the conditions specified in FIGS. 4A and 4B which are graphic representations of the HPLC analysis results for a fluprostenol 1,15-lactone standard (FIG. 4A) and a mixture of fluprostenol 1,15-lactone and bovine corneal tissue incubated for 4 hours (FIG. 4B)."}
{"compound": "O=C1CCC/C=C\\CC2C(/C=C/[C@@H](COc3cccc(C(F)(F)F)c3)O1)[C@H](O)C[C@@H]2O", "note": "(some centres unmarked) [fluprostenol 1,15-lactone]", "values": [{"measurement": "conversion of fluprostenol 1,15-lactone to fluprostenol free acid", "setting": "HPLC, after 4 hours", "result": "more than 50%"}, {"measurement": "release of the free acid by hydrolysis", "setting": "TLC, by 4 hours", "result": "clearly shown"}]}
